These results are taken from ChEMBL document CHEMBL1201862, “PubChem BioAssay data set” (2004).

Experiment [1] addresses T1, Sentrin-specific protease 8 (Homo sapiens, UniProt Q96LD8).
T1 sequence (Q96LD8 whole entry): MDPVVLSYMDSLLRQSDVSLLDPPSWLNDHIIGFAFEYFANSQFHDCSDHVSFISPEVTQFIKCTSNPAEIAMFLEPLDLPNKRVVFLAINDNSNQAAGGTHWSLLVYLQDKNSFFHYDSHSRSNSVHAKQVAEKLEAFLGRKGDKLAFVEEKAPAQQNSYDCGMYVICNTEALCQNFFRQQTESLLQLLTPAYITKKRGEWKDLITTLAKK
The experiment is classed as functional.

Experiment [2] has as its target T2, Sentrin-specific protease 7 (Homo sapiens, UniProt Q9BQF6).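 Also: Luminescence-based dose-response confirmation of ultra-high-throughput screening hits, measuring inhibition of SENP7.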
T2 sequence (Q9BQF6 whole entry): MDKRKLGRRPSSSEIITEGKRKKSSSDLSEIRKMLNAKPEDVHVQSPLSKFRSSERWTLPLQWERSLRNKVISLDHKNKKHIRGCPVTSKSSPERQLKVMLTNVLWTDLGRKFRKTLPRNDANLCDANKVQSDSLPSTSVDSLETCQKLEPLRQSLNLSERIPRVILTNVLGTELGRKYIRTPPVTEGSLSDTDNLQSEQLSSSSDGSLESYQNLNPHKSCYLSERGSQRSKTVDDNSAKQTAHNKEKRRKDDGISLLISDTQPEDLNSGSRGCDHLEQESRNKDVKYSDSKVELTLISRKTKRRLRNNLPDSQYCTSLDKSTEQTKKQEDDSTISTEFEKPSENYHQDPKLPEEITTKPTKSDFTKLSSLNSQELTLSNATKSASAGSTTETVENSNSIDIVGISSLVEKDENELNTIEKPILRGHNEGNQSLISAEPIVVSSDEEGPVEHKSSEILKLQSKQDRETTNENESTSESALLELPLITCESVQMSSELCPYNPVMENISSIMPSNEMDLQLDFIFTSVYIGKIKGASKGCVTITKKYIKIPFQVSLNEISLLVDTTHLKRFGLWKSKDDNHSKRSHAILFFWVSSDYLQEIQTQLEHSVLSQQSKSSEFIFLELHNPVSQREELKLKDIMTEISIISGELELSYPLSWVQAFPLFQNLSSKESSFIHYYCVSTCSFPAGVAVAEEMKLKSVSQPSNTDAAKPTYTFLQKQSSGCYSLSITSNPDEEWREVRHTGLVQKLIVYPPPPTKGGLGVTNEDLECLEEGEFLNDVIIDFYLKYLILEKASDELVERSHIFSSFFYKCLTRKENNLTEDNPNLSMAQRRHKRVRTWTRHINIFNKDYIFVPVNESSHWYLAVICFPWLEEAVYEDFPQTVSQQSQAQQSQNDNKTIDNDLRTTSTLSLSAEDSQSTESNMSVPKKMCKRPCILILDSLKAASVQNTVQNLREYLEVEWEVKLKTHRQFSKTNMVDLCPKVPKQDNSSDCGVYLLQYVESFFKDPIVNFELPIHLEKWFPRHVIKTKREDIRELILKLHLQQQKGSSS
The experiment is classed as functional.

In experiment [3] the target is Calcium/calmodulin-dependent protein kinase type II subunit alpha (Homo sapiens, UniProt Q9UQM7). Put plainly: Navigating the Kinome. Panel member name: CAMK2A. It is filed as functional.
Sequence of Calcium/calmodulin-dependent protein kinase type II subunit alpha (Q9UQM7 whole entry): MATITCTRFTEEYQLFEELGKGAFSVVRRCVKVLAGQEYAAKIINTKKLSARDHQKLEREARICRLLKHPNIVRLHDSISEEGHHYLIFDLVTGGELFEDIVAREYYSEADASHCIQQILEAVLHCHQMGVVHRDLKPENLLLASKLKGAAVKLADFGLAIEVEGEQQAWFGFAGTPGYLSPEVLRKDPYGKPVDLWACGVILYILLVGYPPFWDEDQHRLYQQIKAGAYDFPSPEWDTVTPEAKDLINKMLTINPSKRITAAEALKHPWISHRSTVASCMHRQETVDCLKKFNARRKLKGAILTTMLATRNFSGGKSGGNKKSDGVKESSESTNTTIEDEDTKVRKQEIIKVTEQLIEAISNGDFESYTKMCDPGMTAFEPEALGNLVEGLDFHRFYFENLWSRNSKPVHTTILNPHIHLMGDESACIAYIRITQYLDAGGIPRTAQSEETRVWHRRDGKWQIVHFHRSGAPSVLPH
The target in experiment [4] is Receptor-type tyrosine-protein kinase FLT3 (Homo sapiens, UniProt P36888). It is filed as functional.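 Also: FLT3 was tested as one member of a kinome-wide kinase panel.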
Sequence of Receptor-type tyrosine-protein kinase FLT3 (P36888 whole entry): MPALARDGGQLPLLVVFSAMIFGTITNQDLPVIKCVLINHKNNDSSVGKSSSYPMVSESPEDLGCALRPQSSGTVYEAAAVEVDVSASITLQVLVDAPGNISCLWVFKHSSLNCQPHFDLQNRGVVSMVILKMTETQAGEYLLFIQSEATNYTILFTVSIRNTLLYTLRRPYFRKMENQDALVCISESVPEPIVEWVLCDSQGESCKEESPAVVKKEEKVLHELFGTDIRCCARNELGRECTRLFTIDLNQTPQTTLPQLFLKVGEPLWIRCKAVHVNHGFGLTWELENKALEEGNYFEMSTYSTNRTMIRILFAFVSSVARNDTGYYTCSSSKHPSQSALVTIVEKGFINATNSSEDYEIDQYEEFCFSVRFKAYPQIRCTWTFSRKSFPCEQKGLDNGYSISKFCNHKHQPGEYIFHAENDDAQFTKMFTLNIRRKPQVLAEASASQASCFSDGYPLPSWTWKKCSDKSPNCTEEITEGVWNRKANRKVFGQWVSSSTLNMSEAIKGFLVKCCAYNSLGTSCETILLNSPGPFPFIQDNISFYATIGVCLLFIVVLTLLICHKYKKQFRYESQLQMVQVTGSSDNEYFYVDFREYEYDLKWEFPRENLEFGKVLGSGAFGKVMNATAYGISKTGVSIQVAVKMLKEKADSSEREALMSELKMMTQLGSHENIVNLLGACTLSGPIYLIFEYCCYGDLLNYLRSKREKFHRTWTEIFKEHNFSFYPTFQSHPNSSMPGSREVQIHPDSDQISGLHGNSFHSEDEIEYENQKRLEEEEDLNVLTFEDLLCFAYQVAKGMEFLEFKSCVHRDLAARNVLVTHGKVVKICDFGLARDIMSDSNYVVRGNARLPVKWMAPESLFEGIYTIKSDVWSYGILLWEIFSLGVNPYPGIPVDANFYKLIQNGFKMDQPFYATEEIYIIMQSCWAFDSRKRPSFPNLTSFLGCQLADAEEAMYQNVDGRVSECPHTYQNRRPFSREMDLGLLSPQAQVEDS
The target in experiment [5] is Cyclin-dependent kinase 8 (Homo sapiens, UniProt P49336). Briefly: Navigating the Kinome. Panel member name: CDK8. It is filed as functional.
The target of experiment [6] is Macrophage-stimulating protein receptor (Homo sapiens, UniProt Q04912). Briefly: Navigating the Kinome. Panel member name: MST1R. The experiment is classed as functional.
For experiment [7], the target named is Ribosomal protein S6 kinase alpha-3 (Homo sapiens, UniProt P51812). It is filed as functional.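 Also: measured within a kinome-wide profiling panel.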
Sequence of Ribosomal protein S6 kinase alpha-3 (P51812 whole entry): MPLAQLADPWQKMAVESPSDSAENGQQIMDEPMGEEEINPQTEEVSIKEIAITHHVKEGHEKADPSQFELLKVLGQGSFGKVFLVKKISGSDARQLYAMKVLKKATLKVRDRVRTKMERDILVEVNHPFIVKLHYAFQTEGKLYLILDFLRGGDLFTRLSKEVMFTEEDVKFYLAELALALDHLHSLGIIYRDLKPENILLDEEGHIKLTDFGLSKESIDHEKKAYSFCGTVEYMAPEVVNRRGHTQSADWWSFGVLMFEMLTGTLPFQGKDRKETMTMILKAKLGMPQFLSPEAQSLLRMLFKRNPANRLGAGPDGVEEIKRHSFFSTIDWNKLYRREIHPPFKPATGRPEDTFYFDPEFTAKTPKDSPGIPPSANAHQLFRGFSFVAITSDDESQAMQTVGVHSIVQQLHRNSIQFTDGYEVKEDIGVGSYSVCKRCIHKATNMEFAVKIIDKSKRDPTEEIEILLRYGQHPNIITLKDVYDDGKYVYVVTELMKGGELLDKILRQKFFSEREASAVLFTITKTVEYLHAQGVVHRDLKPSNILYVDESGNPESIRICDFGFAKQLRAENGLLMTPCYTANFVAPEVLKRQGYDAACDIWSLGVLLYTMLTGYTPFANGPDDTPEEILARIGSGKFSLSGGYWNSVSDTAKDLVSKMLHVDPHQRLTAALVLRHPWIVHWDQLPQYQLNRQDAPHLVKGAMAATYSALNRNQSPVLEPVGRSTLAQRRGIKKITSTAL
The next experiment addresses Aurora kinase A (Homo sapiens, UniProt O14965). The experiment is classed as functional.
The target of experiment [8] is cAMP-dependent protein kinase catalytic subunit alpha (Homo sapiens, UniProt P17612). The experiment is classed as functional.
In experiment [9] the target is Proto-oncogene tyrosine-protein kinase receptor Ret (Homo sapiens, UniProt P07949). The experiment is classed as functional.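 Also: measured within a kinome-wide profiling panel, RET as the panel member.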
The target of another experiment is Activated CDC42 kinase 1 (Homo sapiens, UniProt Q07912). Put plainly: Navigating the Kinome. Panel member name: ACK1. The experiment is classed as functional.
Sequence of Activated CDC42 kinase 1 (Q07912 whole entry): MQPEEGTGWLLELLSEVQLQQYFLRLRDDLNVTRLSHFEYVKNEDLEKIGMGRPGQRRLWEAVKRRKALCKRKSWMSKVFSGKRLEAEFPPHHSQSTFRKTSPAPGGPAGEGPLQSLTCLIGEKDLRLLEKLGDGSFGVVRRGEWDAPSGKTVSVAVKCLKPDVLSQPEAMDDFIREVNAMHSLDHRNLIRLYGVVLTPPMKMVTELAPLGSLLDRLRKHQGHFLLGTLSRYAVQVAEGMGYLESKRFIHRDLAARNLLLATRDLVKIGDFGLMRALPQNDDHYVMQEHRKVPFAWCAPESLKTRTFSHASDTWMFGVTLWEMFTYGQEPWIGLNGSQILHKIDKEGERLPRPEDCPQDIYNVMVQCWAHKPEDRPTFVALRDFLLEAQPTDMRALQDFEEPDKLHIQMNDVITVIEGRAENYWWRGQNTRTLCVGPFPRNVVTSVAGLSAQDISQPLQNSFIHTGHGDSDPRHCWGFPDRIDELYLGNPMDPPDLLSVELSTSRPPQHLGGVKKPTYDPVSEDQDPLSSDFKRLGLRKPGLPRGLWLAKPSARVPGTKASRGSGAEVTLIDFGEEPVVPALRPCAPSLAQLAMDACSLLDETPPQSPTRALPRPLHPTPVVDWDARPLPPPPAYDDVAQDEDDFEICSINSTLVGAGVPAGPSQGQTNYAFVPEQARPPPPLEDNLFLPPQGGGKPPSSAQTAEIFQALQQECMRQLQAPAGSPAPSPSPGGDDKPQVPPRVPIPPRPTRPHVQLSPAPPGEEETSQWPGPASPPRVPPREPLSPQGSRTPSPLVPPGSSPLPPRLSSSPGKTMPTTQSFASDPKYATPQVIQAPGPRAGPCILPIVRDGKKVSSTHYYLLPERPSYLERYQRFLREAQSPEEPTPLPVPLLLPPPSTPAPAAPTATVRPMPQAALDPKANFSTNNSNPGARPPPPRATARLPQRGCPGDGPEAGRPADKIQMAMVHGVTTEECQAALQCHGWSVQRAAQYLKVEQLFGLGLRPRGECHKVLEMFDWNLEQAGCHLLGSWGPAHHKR
For experiment [10], the target named is Macrophage colony-stimulating factor 1 receptor (Homo sapiens, UniProt P07333). It is filed as functional.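 Also: value comes from the Navigating the Kinome screening panel, CSF1R member.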
Experiment [11] deals with Glycogen synthase kinase-3 alpha (Homo sapiens, UniProt P49840). The experiment is classed as functional.
Experiment [12] deals with Tyrosine-protein kinase Fyn (Homo sapiens, UniProt P06241). It is filed as functional.
For experiment [13], the target named is cAMP-dependent protein kinase catalytic subunit PRKX (Homo sapiens, UniProt P51817). The experiment is classed as functional.
Sequence of cAMP-dependent protein kinase catalytic subunit PRKX (P51817 whole entry, canonical isoform): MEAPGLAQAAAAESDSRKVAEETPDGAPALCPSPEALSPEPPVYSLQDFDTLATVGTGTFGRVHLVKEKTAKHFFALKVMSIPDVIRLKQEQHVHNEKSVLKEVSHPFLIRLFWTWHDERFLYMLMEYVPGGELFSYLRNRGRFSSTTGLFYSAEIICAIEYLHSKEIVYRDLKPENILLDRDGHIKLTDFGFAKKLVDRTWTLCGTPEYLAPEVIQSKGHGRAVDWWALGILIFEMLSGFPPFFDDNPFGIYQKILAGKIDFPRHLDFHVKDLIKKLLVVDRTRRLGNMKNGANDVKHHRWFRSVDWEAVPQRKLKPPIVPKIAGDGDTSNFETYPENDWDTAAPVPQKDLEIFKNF
Experiment [14] has as its target Casein kinase I isoform alpha (Homo sapiens, UniProt P48729). It is filed as functional.
Experiment [15] deals with Mitogen-activated protein kinase 9 (Homo sapiens, UniProt P45984). It is filed as functional.
Sequence of Mitogen-activated protein kinase 9 (P45984 whole entry): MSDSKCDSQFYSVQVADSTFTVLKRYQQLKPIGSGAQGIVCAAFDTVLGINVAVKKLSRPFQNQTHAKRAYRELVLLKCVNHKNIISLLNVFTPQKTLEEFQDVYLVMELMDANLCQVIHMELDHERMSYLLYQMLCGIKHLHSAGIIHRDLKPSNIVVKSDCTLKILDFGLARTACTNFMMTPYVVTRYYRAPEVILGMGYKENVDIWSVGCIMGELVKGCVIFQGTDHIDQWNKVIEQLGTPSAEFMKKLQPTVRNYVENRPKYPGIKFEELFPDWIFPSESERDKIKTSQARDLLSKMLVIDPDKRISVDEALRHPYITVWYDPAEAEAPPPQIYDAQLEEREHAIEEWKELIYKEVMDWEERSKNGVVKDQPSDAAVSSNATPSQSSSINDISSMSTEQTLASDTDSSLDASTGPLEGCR
For experiment [16], the target named is Leucine-rich repeat serine/threonine-protein kinase 2 (Homo sapiens, UniProt Q5S007). The experiment is classed as functional.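 Also: value from a broad kinome-wide panel profiling study in which LRRK2 was one of the kinases tested.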
The target of another experiment is T3, Streptokinase A (Streptococcus pyogenes serotype M1, UniProt P10520).
T3 sequence (P10520 whole entry): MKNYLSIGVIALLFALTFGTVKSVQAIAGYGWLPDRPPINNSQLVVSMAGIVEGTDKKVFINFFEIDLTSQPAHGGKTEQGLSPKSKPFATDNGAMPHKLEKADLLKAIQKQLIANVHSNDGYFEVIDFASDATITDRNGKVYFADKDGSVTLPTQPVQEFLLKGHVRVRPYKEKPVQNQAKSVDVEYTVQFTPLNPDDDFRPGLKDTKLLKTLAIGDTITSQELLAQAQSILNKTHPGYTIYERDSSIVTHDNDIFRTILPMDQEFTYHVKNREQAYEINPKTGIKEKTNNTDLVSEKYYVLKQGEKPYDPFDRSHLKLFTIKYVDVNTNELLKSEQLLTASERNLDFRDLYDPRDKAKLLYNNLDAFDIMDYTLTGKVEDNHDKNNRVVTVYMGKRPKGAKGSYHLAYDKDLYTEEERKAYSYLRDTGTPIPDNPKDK
Briefly: S. pyogenes streptokinase expression inhibitors, potency, dose response, plasminogen activation absorbance, OD405 (AID 1914).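 Also: secreted streptokinase activity via plasminogen activation per viability signal from cell pellet.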 The experiment is classed as functional, Streptococcus pyogenes M1 GAS.

The next experiment relates to Streptococcus. Briefly: Group A Streptococcus viability loss, dose response, counter-screen for streptokinase expression inhibitor project, luminescence, BacTiterGlo (AID 1915).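 Also: potency for reduction of bacterial viability or growth.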 It is filed as functional, organism-based. Background: The purpose of a counterscreen is to sort out artefacts and off-target activity.
Experiment [17] has as its system Streptococcus sp. 'group A'. Briefly: growth inhibition of control SK(-) GAS strain, dose response, counter-screen for streptokinase expression inhibitor project, luminescence, kanamycin, BacTiterGlo, confirmation (AID 1900). It is filed as functional, organism-based.
Experiment [18] in a line: NIH-3T3 fibroblast cytotoxicity, dose response, cytotoxicity control, cell-based, fluorescence, Alamar Blue, secondary assay (AID 2327).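 Also: NIH-3T3 mouse fibroblasts cultured with fluconazole at 8 µg/mL.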 The experiment is classed as functional.

Activity calls are given as the source filed them.

Sequence of Aurora kinase A (O14965 whole entry): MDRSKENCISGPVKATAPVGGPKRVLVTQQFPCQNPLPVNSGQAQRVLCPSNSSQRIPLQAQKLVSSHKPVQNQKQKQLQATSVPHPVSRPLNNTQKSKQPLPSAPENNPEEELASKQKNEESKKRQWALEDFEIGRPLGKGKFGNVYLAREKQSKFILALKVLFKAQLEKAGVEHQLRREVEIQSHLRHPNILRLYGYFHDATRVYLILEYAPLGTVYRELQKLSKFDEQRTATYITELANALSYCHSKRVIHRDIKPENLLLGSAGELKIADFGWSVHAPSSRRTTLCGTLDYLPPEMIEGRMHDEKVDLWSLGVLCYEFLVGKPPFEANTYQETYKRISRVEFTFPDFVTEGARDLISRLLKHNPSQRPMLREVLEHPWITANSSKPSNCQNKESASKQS
Sequence of Casein kinase I isoform alpha (P48729 whole entry, canonical isoform): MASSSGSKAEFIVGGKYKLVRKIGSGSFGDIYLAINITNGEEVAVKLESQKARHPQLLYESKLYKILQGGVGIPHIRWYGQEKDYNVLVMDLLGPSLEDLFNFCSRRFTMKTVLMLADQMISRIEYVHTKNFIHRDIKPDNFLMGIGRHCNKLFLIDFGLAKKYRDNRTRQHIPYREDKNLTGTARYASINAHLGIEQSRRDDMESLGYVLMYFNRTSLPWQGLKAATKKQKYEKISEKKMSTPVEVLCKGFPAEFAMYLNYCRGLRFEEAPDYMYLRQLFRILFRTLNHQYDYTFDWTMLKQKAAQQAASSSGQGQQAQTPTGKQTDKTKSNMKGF

For orientation: IC50 means the midpoint of a concentration-inhibition curve. Regarding `O=C(N/N=C/c1c(O)ccc2ccccc12)c1[nH]ncc1Br`, the IC50 in experiment [1] is > 100 µM (inactive); in experiment [2], 7.19 µM (active).
The term Ki denotes a measure of affinity in units of concentration, obtained from inhibition or displacement. Take `O=C(Nc1cc(-c2c[nH]c3ncccc23)cc(Cl)n1)c1ccccc1`: the Ki in experiment [3] is > 7.94 µM (inactive); in [4], > 2.51 µM (inactive); in experiment [5] it was 79.4 nM (active); in [6], > 3.98 µM (inactive); in experiment [7] it was > 3.98 µM (inactive); on Aurora kinase A, > 1.58 µM (inactive). Also, the Ki is > 2.51 µM (inactive) in experiment [8]; > 3.16 µM (inactive) in experiment [9]; > 3.98 µM (inactive) at Activated CDC42 kinase 1; > 2.51 µM (inactive) in experiment [10]; > 3.98 µM (inactive) in experiment [11]; > 6.31 µM (inactive) in experiment [12]. Further, the Ki in experiment [13] was > 3.16 µM (inactive); in experiment [14], > 2.51 µM (inactive); in [15], > 3.98 µM (inactive); in experiment [16] it was > 2.51 µM (inactive).
On to `Nc1c(-c2ccc(NC(=O)Nc3cccc(C(F)(F)F)c3)cc2)cnc2c(-c3ccc4c(c3)OCO4)cnn12`, for which the Ki is > 3.98 µM (inactive) in experiment [3]; 0.0501 µM (active) in experiment [4]; 25.1 nM (active) in experiment [5]; > 3.98 µM (inactive) in experiment [6]; > 3.98 µM (inactive) in experiment [7]; > 1.58 µM (inactive) at Aurora kinase A. The Ki in experiment [8] was > 1.26 µM (inactive); in [9], 0.00398 µM (active); on Activated CDC42 kinase 1, 0.2 µM (active); in experiment [10], 0.0631 µM (active); in experiment [11], > 3.98 µM (inactive); in experiment [12] it was 0.316 µM (active). For the same compound, the Ki is > 3.16 µM (inactive) in experiment [13], > 3.98 µM (inactive) in experiment [14], > 3.98 µM (inactive) in experiment [15] and > 2.51 µM (inactive) in experiment [16].
For orientation: EC50 means the midpoint of the concentration-response curve. Consider `CNC[C@H](Cc1ccccc1)NC[C@@H](Cc1cccc2ccccc12)NCCc1ccc(C)cc1`, for which the EC50 on Streptokinase A was > 150 µM (not active); with Streptococcus, 7.51 µM (active); in experiment [17], 4.79 µM (active); in experiment [18], > 160 µM (inconclusive).
On the same counts, the results for `CCN1C(=Cc2sc3ccccc3[n+]2C)C=Cc2cccc(C)c21` are > 150 µM (not active), 8.99 µM (active), 4.08 µM (active) and 15.5 µM (inconclusive).
With `Nc1nnc2c(n1)CCCC2`, the IC50 in [1] was 10.8 µM (active); in experiment [2], 10.2 µM (active).
